# Data: ChEMBL document CHEMBL1142334, “Discovery of a novel class of selective human CB1 inverse agonists” (Bioorg Med Chem Lett, 2008)
# Experiments:
# Homo sapiens = species on record: Homo sapiens; assay: Selectivity ratio, Ki for human CB2 receptor to Ki for human CB1 receptor
# Cannabinoid receptor 1 [1] = target: T1, Cannabinoid receptor 1 (Homo sapiens, UniProt P21554); assay: Displacement of radioligand from human CB1 receptor expressed in HEK293 cells; assay type: cell-based
# Cannabinoid receptor 1 [2] = target: T1, Cannabinoid receptor 1; assay: Displacement of radioligand from human CB1 receptor expressed in HEK293 cells at 10 uM; assay type: cell-based
# Cannabinoid receptor 2 = Cannabinoid receptor 2 (Homo sapiens, UniProt P34972); assay: Displacement of radioligand from human CB2 receptor expressed in HEK293 cells; assay type: cell-based
# Cannabinoid receptor 1 [3] = target: T1, Cannabinoid receptor 1; assay: Inverse agonist activity at human CB1 receptor expressed in HEK293 EBNA cells by [35S]GTPgammaS incorporation assay; assay type: functional, cell-based
# Cannabinoid receptor 2, sequence (P34972 whole entry): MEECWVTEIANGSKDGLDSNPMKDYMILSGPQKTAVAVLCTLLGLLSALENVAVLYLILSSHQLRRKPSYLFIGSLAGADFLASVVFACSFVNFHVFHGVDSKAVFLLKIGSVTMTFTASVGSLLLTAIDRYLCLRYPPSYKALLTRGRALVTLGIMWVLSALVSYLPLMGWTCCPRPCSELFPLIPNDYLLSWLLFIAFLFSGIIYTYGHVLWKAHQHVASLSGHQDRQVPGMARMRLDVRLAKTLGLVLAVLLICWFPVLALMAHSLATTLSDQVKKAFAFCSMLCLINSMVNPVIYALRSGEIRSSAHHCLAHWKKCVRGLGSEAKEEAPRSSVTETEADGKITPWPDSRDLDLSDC
# T1 sequence (P21554 whole entry): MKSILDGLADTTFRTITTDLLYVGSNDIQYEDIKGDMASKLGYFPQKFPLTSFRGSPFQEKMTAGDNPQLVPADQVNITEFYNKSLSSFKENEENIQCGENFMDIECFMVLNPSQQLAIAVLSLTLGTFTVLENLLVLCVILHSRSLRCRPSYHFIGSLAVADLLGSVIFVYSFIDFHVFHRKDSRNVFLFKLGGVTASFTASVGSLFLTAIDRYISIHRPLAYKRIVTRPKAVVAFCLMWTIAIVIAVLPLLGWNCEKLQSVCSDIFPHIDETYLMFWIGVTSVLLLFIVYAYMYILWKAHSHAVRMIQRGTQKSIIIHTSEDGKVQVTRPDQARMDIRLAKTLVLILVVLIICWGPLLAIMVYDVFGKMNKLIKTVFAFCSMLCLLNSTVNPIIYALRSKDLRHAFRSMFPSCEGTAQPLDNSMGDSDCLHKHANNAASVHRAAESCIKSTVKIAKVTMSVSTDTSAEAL
Ratio Ki (Homo sapiens),Ki (Cannabinoid receptor 1 [1]),inhibition (Cannabinoid receptor 1 [2]),Ki (Cannabinoid receptor 2),EC50 (Cannabinoid receptor 1 [3]),Structure (SMILES)
86,77 nM,92%,6600 nM,–,Cc1c(C(=O)NCc2ccccc2)oc2ccc(S(=O)(=O)N3CC(C)CC(C)C3)cc12 (stereo not drawn)
65,62 nM,95%,4000 nM,–,Cc1c(C(=O)NCc2ccc(F)cc2)oc2ccc(S(=O)(=O)N3CC(C)CC(C)C3)cc12 (stereo not drawn)
30,198 nM,92%,6000 nM,–,Cc1c(C(=O)NCCc2ccccc2)oc2ccc(S(=O)(=O)N3CC(C)CC(C)C3)cc12 (stereo not drawn)
4560,5 nM,96%,22800 nM,72.4 nM,Cc1c(C(=O)NC2CCCc3ccccc32)oc2ccc(S(=O)(=O)N3CC(C)CC(C)C3)cc12 (stereo not drawn)
–,–,83%,–,–,Cc1c(C(=O)NC2CC2)oc2ccc(S(=O)(=O)N3CC(C)CC(C)C3)cc12 (stereo not drawn)
–,–,10%,–,–,Cc1c(C(=O)NCc2ccccn2)oc2ccc(S(=O)(=O)N3CC(C)CC(C)C3)cc12 (stereo not drawn)
–,–,27%,–,–,Cc1c(C(=O)N2CCN(C)CC2)oc2ccc(S(=O)(=O)N3CC(C)CC(C)C3)cc12 (stereo not drawn)
82,90 nM,95%,7400 nM,–,Cc1c(C(=O)NC2CCCC2)oc2ccc(S(=O)(=O)N3CC(C)CC(C)C3)cc12 (stereo not drawn)
–,–,12%,–,–,COc1ccc(Cl)cc1NC(=O)c1oc2ccc(S(=O)(=O)N3CC(C)CC(C)C3)cc2c1C (stereo not drawn)
–,–,< 1%,–,–,CCN(CC)CCCNC(=O)c1oc2ccc(S(=O)(=O)N3CC(C)CC(C)C3)cc2c1C (stereo not drawn)
–,–,11%,–,–,CCN(CC)S(=O)(=O)c1ccc2oc(C(=O)N(C)Cc3ccccc3)c(C)c2c1
–,–,46%,–,–,Cc1c(C(=O)NCc2cccnc2)oc2ccc(S(=O)(=O)N3CC(C)CC(C)C3)cc12 (stereo not drawn)
25,193 nM,90%,4900 nM,–,Cc1c(C(=O)N2CCCCCC2)oc2ccc(S(=O)(=O)N3CC(C)CC(C)C3)cc12 (stereo not drawn)
102,97 nM,96%,9900 nM,–,CCOc1ccccc1CNC(=O)c1oc2ccc(S(=O)(=O)N3CC(C)CC(C)C3)cc2c1C (stereo not drawn)
161,108 nM,95%,17400 nM,–,Cc1c(C(=O)NC2CCCCC2)oc2ccc(S(=O)(=O)N3CC(C)CC(C)C3)cc12 (stereo not drawn)
–,–,84%,–,–,Cc1cccc(NC(=O)c2oc3ccc(S(=O)(=O)N4CC(C)CC(C)C4)cc3c2C)c1C (stereo not drawn)
83,58 nM,95%,4800 nM,–,Cc1c(C(=O)NCc2ccccc2Cl)oc2ccc(S(=O)(=O)N3CC(C)CC(C)C3)cc12 (stereo not drawn)
–,172 nM,92%,–,–,Cc1c(C(=O)N(C)CCc2ccccc2)oc2ccc(S(=O)(=O)N3CC(C)CC(C)C3)cc12 (stereo not drawn)
–,–,70%,–,–,Cc1c(C(=O)Nc2cccc(Cl)c2)oc2ccc(S(=O)(=O)N3CC(C)CC(C)C3)cc12 (stereo not drawn)
–,–,89%,–,–,CCN(CC)C(=O)c1oc2ccc(S(=O)(=O)N3CC(C)CC(C)C3)cc2c1C (stereo not drawn)
34,92 nM,98%,3100 nM,435 nM,CCN(Cc1ccccc1)C(=O)c1oc2ccc(S(=O)(=O)N3CC(C)CC(C)C3)cc2c1C (stereo not drawn)
–,–,20%,–,–,Cc1c(C(=O)N(C)Cc2ccccc2)oc2ccc(S(=O)(=O)N3CCCC3)cc12
–,–,50%,–,–,Cc1c(C(=O)N(C)CCC#N)oc2ccc(S(=O)(=O)N3CC(C)CC(C)C3)cc12 (stereo not drawn)
393,58 nM,97%,22800 nM,–,COc1ccccc1CNC(=O)c1oc2ccc(S(=O)(=O)N3CC(C)CC(C)C3)cc2c1C (stereo not drawn)
–,–,44%,–,–,Cc1c(C(=O)Nc2ccccc2Cl)oc2ccc(S(=O)(=O)N3CC(C)CC(C)C3)cc12 (stereo not drawn)

Structure (SMILES),Ratio Ki (Homo sapiens),Ki (Cannabinoid receptor 1 [1]),inhibition (Cannabinoid receptor 1 [2]),Ki (Cannabinoid receptor 2),EC50 (Cannabinoid receptor 1 [3])
CCCCNC(=O)c1oc2ccc(S(=O)(=O)N3CC(C)CC(C)C3)cc2c1C (stereo not drawn),100,94 nM,92%,9400 nM,–
Cc1ccc(CNC(=O)c2oc3ccc(S(=O)(=O)N4CC(C)CC(C)C4)cc3c2C)cc1 (stereo not drawn),242,79 nM,93%,19100 nM,–
Cc1c(C(=O)N(C)Cc2ccccc2)oc2ccc(S(=O)(=O)N3CC(C)CC(C)C3)cc12 (stereo not drawn),112,59 nM,93%,6600 nM,–
